Reference: the supplement of paper PMC10627819

What was measured:
Assay in all cases: fitness (endpoint OD595 vs no drug) (fraction); higher = more growth
[1] = system: S. aureus Newman
Outline: (§1)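 Bacterial fitness was scored as optical density at the stationary-phase transition relative to the robust mean of no-drug control wells. Scores are capped at 1. The growth data were OD595 readings every 30 min for 14 h at 37 °C, background-subtracted against the first reading, from 384-well plates inoculated at OD595 0.01 in TSB, LB Lennox or CY.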

[2] = system: B. subtilis 168
Outline: as §1

[3] = system: S. pneumoniae D39V
Outline: as §1
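Note: OD595 on entry to stationary phase over no-drug wells; at most 1.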

CC1(C)S[C@@H]2[C@H](NC(=O)Cc3ccccc3)C(=O)N2[C@H]1C(=O)O [Penicillin G] + CCCCCCCCCC(=O)N[C@@H]1[C@H]([C@@H]([C@H](O[C@H]1OC2=C3C=C4C=C2OC5=C(C=C(C=C5)[C@H]([C@H]6C(=O)N[C@@H](C7=C(C(=CC(=C7)O)OC8[C@H]([C@H]([C@@H]([C@H](O8)CO)O)O)O)C9=C(C=CC(=C9)[C@H](C(=O)N6)NC(=O)[C@@H]4NC(=O)[C@@H]1C2=CC(=CC(=C2)OC2=C(C=CC(=C2)[C@H](C(=O)N[C@H](CC2=CC(=C(O3)C=C2)Cl)C(=O)N1)N)O)O)O)C(=O)O)O[C@H]1[C@@H]([C@H]([C@@H]([C@H](O1)CO)O)O)NC(=O)C)Cl)CO)O)O [Teicoplanin]
fitness, [1], main component drawn
Conditions | first compound 0.0195 µg/mL | first compound 0.039 µg/mL | first compound 0.078 µg/mL
partner 0.1562 µg/mL | 0.983 | ≥ 1 | ≥ 1
partner 0.3125 µg/mL | 0.955 | 0.924 | 0.921
partner 0.625 µg/mL | 0.803 | 0.824 | 0.776

fitness, [1], one replicate, main component drawn
Conditions | first compound 0.0195 µg/mL | first compound 0.039 µg/mL | first compound 0.078 µg/mL
partner 0.62 µg/mL | 0.697 | 0.741 | 0.715
partner 1.24 µg/mL | 0.702 | 0.732 | 0.711
partner 2.48 µg/mL | 0.377 | 0.393 | 0.284

CC1(C)S[C@@H]2[C@H](NC(=O)Cc3ccccc3)C(=O)N2[C@H]1C(=O)O [Penicillin G] + Cc1cc(NS(=O)(=O)c2ccc(N)cc2)no1 [Sulfamethoxazol]
fitness, [1]
Conditions | first compound 0.0195 µg/mL | first compound 0.039 µg/mL | first compound 0.078 µg/mL
partner 1 µg/mL | 0.929 | 0.912 | 0.888
partner 2 µg/mL | 0.957 | – | 0.879

[1], partner 8 µg/mL, one replicate
Conditions | fitness
first compound 0.0195 µg/mL | 0.859
first compound 0.039 µg/mL | 0.87
first compound 0.078 µg/mL | 0.882

CN(C)[C@@H]1C(O)=C(C(N)=O)C(=O)[C@@]2(O)C(O)=C3C(=O)c4c(O)ccc(Cl)c4[C@@](C)(O)[C@H]3C[C@@H]12 [Chlortetracycline] + C[C@H]1COc2c(N3CCN(C)CC3)c(F)cc3c(=O)c(C(=O)O)cn1c23 [Levofloxacin]
fitness, [2], one replicate
Conditions | first compound 0.0475 µg/mL | first compound 0.095 µg/mL | first compound 0.19 µg/mL
partner 0.001 µg/mL | 0.924 | 0.912 | 0.674
partner 0.0078 µg/mL | 0.907 | 0.824 | 0.623

Conditions | fitness
[2], first compound 0.0475 µg/mL, partner 0.002 µg/mL | 0.898
[2], first compound 0.0475 µg/mL, partner 0.0039 µg/mL | 0.855
[2], first compound 0.0475 µg/mL, partner 0.0312 µg/mL | 0.0308
[2], first compound 0.0475 µg/mL, partner 0.0625 µg/mL | 0.0341
[2], first compound 0.0475 µg/mL, partner 0.125 µg/mL | 0.0327
[2], first compound 0.095 µg/mL, partner 0.002 µg/mL | 0.854
[2], first compound 0.095 µg/mL, partner 0.0039 µg/mL | 0.854
[2], first compound 0.095 µg/mL, partner 0.0312 µg/mL | 0.0231
[2], first compound 0.095 µg/mL, partner 0.0625 µg/mL | 0.0369
[2], first compound 0.095 µg/mL, partner 0.125 µg/mL | 0.028
[2], first compound 0.19 µg/mL, partner 0.002 µg/mL | 0.593
[2], first compound 0.19 µg/mL, partner 0.0039 µg/mL | 0.61
[2], first compound 0.19 µg/mL, partner 0.0312 µg/mL | 0.0218
[2], first compound 0.19 µg/mL, partner 0.0625 µg/mL | 0.054
[2], first compound 0.19 µg/mL, partner 0.125 µg/mL | 0.032
[3], first compound 0.012 µg/mL, partner 0.1725 µg/mL | 0.949
[3], first compound 0.012 µg/mL, partner 0.345 µg/mL | 0.803
[3], first compound 0.012 µg/mL, partner 0.69 µg/mL | 0.603
[3], first compound 0.024 µg/mL, partner 0.1725 µg/mL | 0.909
[3], first compound 0.024 µg/mL, partner 0.345 µg/mL | 0.88
[3], first compound 0.024 µg/mL, partner 0.69 µg/mL | 0.546
[3], first compound 0.048 µg/mL, partner 0.1725 µg/mL | 0.869
[3], first compound 0.048 µg/mL, partner 0.345 µg/mL | 0.828
[3], first compound 0.375 µg/mL, partner 0.2 µg/mL | 0.0411
[3], first compound 0.375 µg/mL, partner 0.4 µg/mL | 0.0338
[3], first compound 0.375 µg/mL, partner 0.8 µg/mL | 0.0351
[3], first compound 0.75 µg/mL, partner 0.2 µg/mL | 0.0448
[3], first compound 0.75 µg/mL, partner 0.4 µg/mL | 0.0671
[3], first compound 0.75 µg/mL, partner 0.8 µg/mL | 0.0531
[3], first compound 1.5 µg/mL, partner 0.2 µg/mL | 0.0471
[3], first compound 1.5 µg/mL, partner 0.4 µg/mL | 0.0332
[3], first compound 1.5 µg/mL, partner 0.8 µg/mL | 0.0439

C[C@H]1c2cccc(O)c2C(=O)C2=C(O)[C@]3(O)C(=O)C(C(N)=O)=C(O)[C@@H](N(C)C)[C@@H]3[C@@H](O)[C@@H]21 [Doxycycline] + CC1=C(C(=O)O)N2C(=O)[C@@H](NC(=O)[C@H](N)c3ccccc3)[C@H]2SC1 [Cephalexin]
Conditions | fitness
[2], first compound 0.02 µg/mL, partner 0.125 µg/mL | 0.834
[2], first compound 0.02 µg/mL, partner 0.25 µg/mL | 0.871
[2], first compound 0.02 µg/mL, partner 0.5 µg/mL | 0.907
[2], first compound 0.04 µg/mL, partner 0.125 µg/mL | 0.702
[2], first compound 0.04 µg/mL, partner 0.25 µg/mL | 0.771
[2], first compound 0.04 µg/mL, partner 0.5 µg/mL | 0.711
[2], first compound 0.08 µg/mL, partner 0.125 µg/mL | 0.413
[2], first compound 0.08 µg/mL, partner 0.25 µg/mL | 0.375
[3], first compound 0.0155 µg/mL, partner 1 µg/mL | 0.873
[3], first compound 0.0155 µg/mL, partner 2 µg/mL | 0.474
[3], first compound 0.0155 µg/mL, partner 4 µg/mL | 0.0211

fitness, one replicate
Conditions | partner 0.125 µg/mL | partner 0.25 µg/mL | partner 0.5 µg/mL | partner 1 µg/mL | partner 2 µg/mL | partner 4 µg/mL
[2], first compound 0.02 µg/mL | – | – | – | ≥ 1 | – | –
[2], first compound 0.04 µg/mL | – | – | – | 0.84 | – | –
[2], first compound 0.08 µg/mL | – | – | – | 0.793 | – | –
[3], first compound 0.003875 µg/mL | – | – | – | 0.601 | 0.0976 | 0.0088
[3], first compound 0.00775 µg/mL | – | – | – | 0.722 | 0.186 | 0.0118
[3], first compound 0.0155 µg/mL | 0.902 | 0.867 | 0.879 | – | – | –
[3], first compound 0.031 µg/mL | 0.916 | 0.885 | 0.887 | 0.756 | 0.634 | 0.0444
[3], first compound 0.062 µg/mL | 0.807 | 0.808 | 0.809 | 0.667 | 0.51 | 0.0551
